Key:
Assay type in all cases: cell-based
[1] = tested on: KRas-mediated Phosphorylation of ERK in HCT116 cells; assay: Cisbio HTRF pERK assay, HCT116 cells; settings: single point at 100 nM; for inhibition at 0.1 µM: Homo sapiens, HCT-116, HCT116 cells; for Inhibition (HTRF % at 100 nM) of KRas-mediated Phosphorylation of ERK, HCT116: HCT116 cells, 0.1 µM
[2] = tested on: KRas-mediated Phosphorylation of ERK in A549 cells; assay: Cisbio HTRF pERK assay, A549 cells; settings: Homo sapiens, A549, A549 cells, single point at 100 nM
[3] = tested on: KRas-mediated Phosphorylation of ERK in H460 cells; assay: Cisbio HTRF pERK assay, H460 cells; settings: single point at 100 nM; for inhibition at 0.1 µM: Homo sapiens, NCI-H460, H460 cells; for Inhibition (HTRF % at 100 nM) of KRas-mediated Phosphorylation of ERK, H460: H460 cells, 0.1 µM
[4] = tested on: KRas-mediated Phosphorylation of ERK in H358 cells; assay: Cisbio HTRF pERK assay, H358 cells; settings: Homo sapiens, NCI-H358, H358 cells, single point at 100 nM

Structure (SMILES) | inhibition at 0.1 µM [1] [%] | inhibition at 0.1 µM [2] [%] | inhibition at 0.1 µM [3] [%] | inhibition at 0.1 µM [4] [%] | Inhibition (HTRF % at 100 nM) of KRas-mediated Phosphorylation of ERK, HCT116 [1] [%] | Inhibition (HTRF % at 100 nM) of KRas-mediated Phosphorylation of ERK, H460 [3] [%]
CCc1c(F)ccc2cc(O)cc(-c3c(F)cc4c(N5CCCC6(CNS(=O)(=O)N6)C5)nc(OCC5(CN(C)C)CC5)nc4c3F)c12 (centres unmarked) [Example 50, 7-(2-((1-((dimethylamino)methyl)cyclopropyl)methoxy)-7-(8-ethyl-7-fluoro-3-hydroxynaphthalen-1-yl)-6,8-difluoroquinazolin-4-yl)-2-thia-1,3,7-triazaspiro[4.5]decane 2,2-dioxide] | -3 | -17 | 38 | 3 |  | 
CCc1c(F)ccc2cc(O)cc(-c3c(F)cc4c(N5CCCn6nc(C(=O)NC)c(C)c6C5)nc(OC[C@@]56CCCN5C[C@H](F)C6)nc4c3F)c12 [Example 81, 5-(7-(8-ethyl-7-fluoro-3-hydroxynaphthalen-1-yl)-6,8-difluoro-2-(((2R,7aS)-2-fluorohexahydro-1H-pyrrolizin-7a-yl)methoxy)quinazolin-4-yl)-N,3-dimethyl-5,6,7,8-tetrahydro-4H-pyrazolo[1,5-a][1,4]diazepine-2-carboxamide] | 32 | 62 | 26 | 98 |  | 
CCc1c(F)ccc2cc(O)cc(C3Cc4nc(OC[C@@]56CCCN5C[C@H](F)C6)nc(N5CCC[C@@](C)(O)C5)c4CO3)c12 (stereo partly drawn) [Example 85, (3R)-1-(7-(8-ethyl-7-fluoro-3-hydroxynaphthalen-1-yl)-2-(((2R,7aS)-2-fluorotetrahydro-1H-pyrrolizin-7a(5H)-yl)methoxy)-7,8-dihydro-5H-pyrano[4,3-d]pyrimidin-4-yl)-3-methylpiperidin-3-ol] | -12 | 21 | 16 | -7 |  | 
CCc1c(F)ccc2cc(O)cc(-c3c(F)cc4c(N5C[C@@H]6C[C@H](C5)[C@H](O)C6)nc(OC[C@@]56CCCN5C[C@H](F)C6)nc4c3F)c12 (atropisomer, axis not shown; (aS)) [Example 67, (1R,5R,6R)-3-((R)-7-(8-ethyl-7-fluoro-3-hydroxynaphthalen-1-yl)-6,8-difluoro-2-(((2R,7aS)-2-fluorohexahydro-1H-pyrrolizin-7a-yl)methoxy)quinazolin-4-yl)-3-azabicyclo[3.2.1]octan-6-ol] |  | 81 |  | 94 | 73 | 95
CCc1c(F)ccc2cc(O)cc(-c3c(F)cc4c(N5CCCn6nc(C(=O)N(C)C)c(C)c6C5)nc(OC[C@@]56CCCN5C[C@H](F)C6)nc4c3F)c12 [Example 80, 5-(7-(8-ethyl-7-fluoro-3-hydroxynaphthalen-1-yl)-6,8-difluoro-2-(((2R,7aS)-2-fluorohexahydro-1H-pyrrolizin-7a-yl)methoxy)quinazolin-4-yl)-N,N,3-trimethyl-5,6,7,8-tetrahydro-4H-pyrazolo[1,5-a][1,4]diazepine-2-carboxamide] | 71 | 83 | 89 | 95 |  | 
CCc1c(F)ccc2cc(O)cc(-c3ccc4c(N5CCOCC(C)(O)C5)nc(OCC5(CN(C)C)CC5)nc4c3F)c12 (centres unmarked) [Example 42, 4-(2-((1-((dimethylamino)methyl)cyclopropyl)methoxy)-7-(8-ethyl-7-fluoro-3-hydroxynaphthalen-1-yl)-8-fluoroquinazolin-4-yl)-6-methyl-1,4-oxazepan-6-ol] | 30 | 39 | 59 | 71 |  | 
CCc1c(F)ccc2cc(O)cc(-c3c(F)cc4c(N5CCCC6(CC(=O)NC6=O)C5)nc(OC[C@@]56CCCN5C[C@H](F)C6)nc4c3F)c12 (stereo partly drawn) [Example 62, 7-(7-(8-ethyl-7-fluoro-3-hydroxynaphthalen-1-yl)-6,8-difluoro-2-(((2R,7aS)-2-fluorotetrahydro-1H-pyrrolizin-7a(5H)-yl)methoxy)quinazolin-4-yl)-2,7-azaspiro[4.5]decane-1,3-dione] | 92 | 72 | 98 | 96 |  | 
CCc1c(F)ccc2cc(O)cc(-c3c(F)cc4c(N5CCCn6nc(C(=O)N(C)C)cc6C5)nc(OC[C@@]56CCCN5C[C@H](F)C6)nc4c3F)c12 (atropisomer, axis not shown; (aS)) [Example 63, 5-((R)-7-(8-ethyl-7-fluoro-3-hydroxynaphthalen-1-yl)-6,8-difluoro-2-(((2R,7aS)-2-fluorohexahydro-1H-pyrrolizin-7a-yl)methoxy)quinazolin-4-yl)-N,N-dimethyl-5,6,7,8-tetrahydro-4H-pyrazolo[1,5-a][1,4]diazepine-2-carboxamide] |  |  |  |  | 61 | 82
CCc1c(F)ccc2cc(O)cc(-c3c(F)cc4c(N5CCCn6nc(C(=O)NC(C)C)cc6C5)nc(OC[C@@]56CCCN5C[C@H](F)C6)nc4c3F)c12 [Example 59, 5-(7-(8-ethyl-7-fluoro-3-hydroxynaphthalen-1-yl)-6,8-difluoro-2-(((2R,7aS)-2-fluorotetrahydro-1H-pyrrolizin-7a(51)-yl)methoxy)quinazolin-4-yl)-N-isopropyl-5,6,7,8-tetrahydro-4H-pyrazolo[1,5-a][1,4]diazepine-2-carboxamide] | 23 |  | 36 |  |  | 
CCc1c(F)ccc2cc(O)cc(-c3c(F)cc4c(N5CCCn6nc(C(=O)N7CCOCC7)c(Cl)c6C5)nc(OC[C@@]56CCCN5C[C@H](F)C6)nc4c3F)c12 [Example 79, (3-chloro-5-(7-(8-ethyl-7-fluoro-3-hydroxynaphthalen-1-yl)-6,8-difluoro-2-(((2R,7aS)-2-fluorohexahydro-1H-pyrrolizin-7a-yl)methoxy)quinazolin-4-yl)-5,6,7,8-tetrahydro-4H-pyrazolo[1,5-a][1,4]diazepin-2-yl)(morpholino)methanone] | 64 | 60 | 85 | 95 |  | 
O=S1(=O)NCC2(CCCN(c3nc(OC[C@@]45CCCN4C[C@H](F)C5)nc4c(F)c(-c5cc(O)cc6ccc(F)c(Cl)c56)ccc34)C2)N1 (stereo partly drawn) [Example 72, 7-(7-(8-chloro-7-fluoro-3-hydroxynaphthalen-1-yl)-8-fluoro-2-(((2R,7aS)-2-fluorohexahydro-1H-pyrrolizin-7a-yl)methoxy)quinazolin-4-yl)-2-thia-1,3,7-triazaspiro[4.5]decane 2,2-dioxide] | 69 | 76 | 87 | 98 |  | 
O=S1(=O)NCC2(CCCN(c3nc(OC[C@@]45CCCN4C[C@H](F)C5)nc4c(F)c(-c5cc(O)cc6ccc(F)c(Cl)c56)c(F)cc34)C2)N1 (stereo partly drawn) [Example 45, 7-(7-(8-chloro-7-fluoro-3-hydroxynaphthalen-1-yl)-6,8-difluoro-2-(((2R,7aS)-2-fluorotetrahydro-1H-pyrrolizin-7a(5H)-yl)methoxy)quinazolin-4-yl)-2-thia-1,3,7-triazaspiro[4.5]decane 2,2-dioxide] | 86 |  | 94 |  |  | 
CCc1c(F)ccc2cc(O)cc(C3Cc4nc(OC[C@@]56CCCN5C[C@H](F)C6)nc(N5C[C@@H]6C[C@H](C5)[C@H](O)C6)c4CO3)c12 (stereo partly drawn) [Example 86, (1R,5R,6R)-3-(7-(8-ethyl-7-fluoro-3-hydroxynaphthalen-1-yl)-2-(((2R,7aS)-2-fluorotetrahydro-1H-pyrrolizin-7a(5H)-yl)methoxy)-7,8-dihydro-5H-pyrano[4,3-d]pyrimidin-4-yl)-3-azabicyclo[3.2.1]octan-6-ol] | -12 | 0 | -1 | -14 |  | 
CCc1c(F)ccc2cc(O)cc(-c3c(F)cc4c(N5CCCC6(CNC(=O)N6)C5)nc(OCC5(CN(C)C)CC5)nc4c3F)c12 (centres unmarked) [Example 49, 7-(2-((1-((dimethylamino)methyl)cyclopropyl)methoxy)-7-(8-ethyl-7-fluoro-3-hydroxynaphthalen-1-yl)-6,8-difluoroquinazolin-4-yl)-1,3,7-triazaspiro[4.5]decan-2-one] | 13 |  | 23 |  |  | 
CCc1c(F)ccc2cc(O)cc(-c3ccc4c(N5CCCC6(CNC(=O)N6)C5)nc(OCC5(CN(C)C)CC5)nc4c3F)c12 (centres unmarked) [Example 36, 7-(2-((1-((dimethylamino)methyl)cyclopropyl)methoxy)-7-(8-ethyl-7-fluoro-3-hydroxynaphthalen-1-yl)-8-fluoroquinazolin-4-yl)-1,3,7-triazaspiro[4.5]decan-2-one] | -22 |  | 25 |  |  | 
CCc1c(F)ccc2cc(O)cc(-c3ccc4c(N5CC6C(=O)NC(=O)C6C5)nc(OCC5(CN(C)C)CC5)nc4c3F)c12 (centres unmarked) [Example 39, 5-(2-((1-((dimethylamino)methyl)cyclopropyl)methoxy)-7-(8-ethyl-7-fluoro-3-hydroxynaphthalen-1-yl)-8-fluoroquinazolin-4-yl)tetrahydropyrrolo[3,4-c]pyrrole-1,3(2H,3aH)-dione] | 3 |  | 11 |  |  | 
CCc1c(F)ccc2cc(O)cc(-c3c(F)cc4c(N5CCOCC(C)(O)C5)nc(OCC5(CN(C)C)CC5)nc4c3F)c12 (centres unmarked) [Example 56, 4-(2-((1-((dimethylamino)methyl)cyclopropyl)methoxy)-7-(8-ethyl-7-fluoro-3-hydroxynaphthalen-1-yl)-6,8-difluoroquinazolin-4-yl)-6-methyl-1,4-oxazepan-6-ol] | 51 | 47 | 86 | 87 |  | 
